We go through 5 molecules from patent publication US10073082B2, “Proteasome inhibition assay and methods of use” (UNIVERSITY HEALTH NETWORK, priority 2013, dated 2018).

Holding throughout (format): cell-based, human
For one assay, the system named is granulocytes. Nature of the assay: IκB degradation agonists in whole blood: IκB degradation and signaling pathway activation in granulocytes. The settings on record: Target Cell Population: Granulocytes. The procedure: (§1) Whole blood samples from normal human donors were collected. 100 μL aliquots of the whole blood were inserted into the bottom of 12×75 mm tubes. In order to reduce the potential for contamination of the sample with unfixed cells, blood was removed from the side of the tubes with a cotton swab. 1-2 μL of a proteasome effector was added to a first portion of the tubes and these tubes were incubated for 2 hours at 37° C. in a water bath. In this example, the proteasome effector was Bortezomib or MG-132, both proteasome inhibitors. Following pretreatment with the proteasome effector, 2 μL of […] stock solution (100 ng) of an IκB degradation agonist was added to the tubes and the tubes were incubated from 1 minute to 60 minutes at 37° C. in a water bath. In this example, the agonist was lipopolysaccharide (LPS). A second portion of the tubes were treated with the IκB degradation agonist and no proteasome effector. 2 μL of an IκB degradation agonist was added to these tubes and the tubes were incubated from 1 minute to 60 minutes as described above. For control tubes, 2 μL of phosphate buffered saline (PBS) was added to the tubes and the tubes were incubated as described above.
(§2) Following incubation, the cells were fixed and permeabilized with a PerFix-P® kit (Beckman Coulter, Inc., Brea. Calif.) according to the manufacturer's instructions. The fixed and permeabilized cells were then washed with 2 mL of Wash Buffer (PBS (w/o Ca++/Mg++) with 2% fetal bovine serum (FBS), sterile filtered (0.22 μm filter)) in the tubes and centrifuged at 500×g for 4 minutes. The cell pellet was resuspended in 2 mL of cold (4° C.) Wash Buffer, centrifuged at 500×g for 4 minutes, and the supernatant was aspirated.
(§3) Following the above wash steps, the fixed and permeabilized cells were resuspended in 100 μL of cold Wash Buffer comprising antibodies to specific intracellular antigens (e.g., signaling targets including P-ERK, P-Akt, P-p38, P-SAPK, P-S6, and antibodies to IκB). The antibodies were labeled with different fluorochromes (e.g. fluorophores) to facilitate their-individual measurement of the intracellular antigens. […] The supernatant was aspirated and the cell pellet was resuspended in 350 μL of Resuspension Buffer (PerFix-P® kit) and analyzed on a flow cytometer (GALLIOS™) using a protocol with defined population gates and series of dual parameter histograms. A CD45-KO vs. SS dual parameter histogram was collected and a gate around the leukocyte population based on the CD45+ fluorescence and SS characteristics was drawn to exclude debris (CD45 negative events). […] The collected flow cytometric data was analyzed using KALUZA™ software.

The subject of assay [1] is peripheral blood monocytes. In words: IκB degradation agonists in whole blood: IκB degradation and signaling pathway activation in monocytes. The settings on record: for Pathways Activated: Target Cell Population: Monocytes. The procedure: as §1, §2
(§4) Following the above wash steps, the fixed and permeabilized cells were resuspended in 100 μL of cold Wash Buffer comprising antibodies to specific intracellular antigens (e.g., signaling targets including P-ERK, P-Akt, P-p38, P-SAPK, P-S6, and antibodies to IκB). The antibodies were labeled with different fluorochromes (e.g. fluorophores) to facilitate their-individual measurement of the intracellular antigens. In order to target specific cell populations in the assay, antibodies capable of differentiating cell populations within the blood sample were also included in some of the tubes. For example, anti-CD14 antibodies were included to specifically label monocytes, anti-CD3 antibodies or anti-CD19 antibodies were included to specifically label T or B-cells respectively, and/or anti-CD38/CD138 antibodies were included to specifically label plasma cells. The cells were incubated with the antibodies for 30 minutes at room temperature and then the cells were washed in 2 mL of cold Wash Buffer and centrifuged as described above. The supernatant was aspirated and the cell pellet was resuspended in 350 μL of Resuspension Buffer (PerFix-P® kit) and analyzed on a flow cytometer (GALLIOS™) using a protocol with defined population gates and series of dual parameter histograms. A CD45-KO vs. SS dual parameter histogram was collected and a gate around the leukocyte population based on the CD45+ fluorescence and SS characteristics was drawn to exclude debris (CD45 negative events). A minimum of 2,500 CD14+ events were collected. A stop count region was set from the CD14-PC7 vs. SS histogram gated on monocytes. Dual parameter histograms gated on the appropriate populations were created to measure the populations of interest. The collected flow cytometric data was analyzed using KALUZA™ software.
(§5) Phosphorylation of signaling pathways activated by TNF-α, including ERK, Akt, and the ribosomal S6 protein, was monitored together with the degradation of IκB in peripheral blood WBCs. Whole blood samples were treated, activated, and processed as described in Example 1 and the degradation of IκB in peripheral blood cells was monitored by flow cytometry as described in Example 1. The IκB degradation agonist used in this example was TNF-α. […]

In assay [2] the test system is peripheral blood lymphocytes. Nature of the assay: IκB degradation agonists in whole blood: IκB degradation and signaling pathway activation in lymphocytes. To be noted: for Pathways Activated: Target Cell Population: Lymphocytes (subpopulation); for Akt activation in lymphocytes / ERK activation in lymphocytes / S6 activation in lymphocytes / degradation of IκB in lymphocytes: agonist alone. The procedure: as §1, §2, §4, §5

In assay [3] the test system is P-S6 (P-Ser235/P-Ser236) in peripheral blood monocytes. In words: S6 phosphorylation in LPS activated monocytes from pretreated whole blood. The procedure: (§6) Whole blood samples from normal human donors were collected. 100 μL aliquots of the whole blood were inserted into the bottom of 12×75 mm tubes. In order to reduce the potential for contamination of the sample with unfixed cells, blood was removed from the side of the tubes with a cotton swab. 1-2 μL of a proteasome effector was added to a first portion of the tubes and these tubes were incubated for 2 hours at 37° C. in a water bath. In this example, the proteasome effector was Bortezomib or MG-132, both proteasome inhibitors. […]
as §3, with “IκB).” for “IκB). The antibodies were labeled with different fluorochromes (e.g. fluorophores) to facilitate their-individual measurement of the intracellular antigens.”, “software. […]” for “software.”

Assay [4] deals with P-ERK (P-Thr202/P-Tyr204) in peripheral blood monocytes. In words: ERK phosphorylation in LPS activated monocytes from pretreated whole blood. The procedure:
as §1, §2
as §4, with “In order to target specific cell populations in the assay, antibodies capable of differentiating cell populations within the blood sample were also included in some of the tubes.” left out, “A stop count region was set from the CD14-PC7 vs. SS histogram gated on monocytes. Dual parameter histograms gated on the appropriate populations were created to measure the populations of interest.” left out
(§7) Phosphorylation of signaling pathways activated by LPS, including ERK, Akt (activated by PI3 Kinase), and the ribosomal S6 protein (a marker of protein synthesis) were also monitored together with the degradation of IκB. […] The degradation of IκB in cells pretreated with MG-132 or GDC-0941 was monitored by flow cytometry as described in Example 1. […]

Assay [5] deals with P-Akt (P-Ser473) in peripheral blood monocytes. Nature of the assay: Akt phosphorylation in LPS activated monocytes from pretreated whole blood. The procedure:
as §6
as §3, with “IκB).” for “IκB). The antibodies were labeled with different fluorochromes (e.g. fluorophores) to facilitate their-individual measurement of the intracellular antigens.”, “software. […]” for “software.”

For assay [6], the system named is IκB in peripheral blood monocytes. Nature of the assay: Flow cytometry assay, whole blood pretreated with effector: LPS induced degradation of IκB in monocytes. The settings on record: whole blood pretreated with compound, then LPS. The procedure:
as §1, with “2 μL of an IκB degradation agonist was added to these tubes and the tubes were incubated from 1 minute to 60 minutes as described above. For control tubes, 2 μL of phosphate buffered saline (PBS) was added to the tubes and the tubes were incubated as described above.” left out
as §3, with “IκB).” for “IκB). The antibodies were labeled with different fluorochromes (e.g. fluorophores) to facilitate their-individual measurement of the intracellular antigens.”
as §7
In general terms: In flow cytometry, cells or beads pass a laser one at a time.

Where [7] appears, read: pathway: Tpl-2 > ERK/MAP kinase.
The mark [8] stands for this setting: pathway: P-ERK/MAP kinase (Ras > Raf).

Turning to TNFα, the “Pathways Activated” value with granulocytes is reported as “P-p38 MAP kinase”; in assay [1] (pathway: IκB > NFκB), “IκB > NFκB”; in assay [1] (pathway: PI3 kinase > Akt) it was “PI3 kinase > Akt”; in assay [1] (setting [7]), “Tpl-2 > ERK/MAP kinase”; in assay [2] (pathway: ERK/MAP kinase (Tpl-2)) it was “ERK/MAP kinase (Tpl-2)”; in assay [2] (pathway: IκB > NFκB) it was “IκB > NFκB”. The “Pathways Activated” value in assay [2] (pathway: PI3 kinase > Akt) is “PI3 kinase > Akt”. Also, the “Akt activation in monocytes” value in assay [1] (agonist alone) was “Neither Akt nor S6 was activated”. Moreover, the “ERK activation in monocytes” value in assay [1] (agonist alone) is on record as “activated”. Also, in assay [1] (agonist alone), the “S6 activation in monocytes” value is “Neither Akt nor S6 was activated”. Besides, the “degradation of IκB in monocytes” value in assay [1] (agonist alone) was “induced degradation of IκB”. Also, the results for the “time of peak loss of IκB after stimulation” value in assay [1] (monocytes) and in assay [2] (lymphocytes) were 10 min and 15 min, respectively. Moreover, the “Akt activation in lymphocytes” value in assay [2] is given as “Neither Akt nor S6 was activated”. The “ERK activation in lymphocytes” value in assay [2] is “no apparent response”. For the same molecule, in assay [2], the “S6 activation in lymphocytes” value is reported as “Neither Akt nor S6 was activated”. Also, in assay [2], the “degradation of IκB in lymphocytes” value was “induced degradation of IκB”.

With `CS(=O)(=O)N1CCN(Cc2cc3nc(-c4cccc5[nH]ncc45)nc(N4CCOCC4)c3s2)CC1` [GDC-0941], in assay [3], the “activation of ribosomal S6 protein” value is on record as “minimal impact”. The “"early" (first) ERK phosphorylation peak” value in assay [4] (LPS activated monocytes, 2-4 minutes) was “inhibited”. Besides, the “"late" (second) ERK activation peak” value in assay [4] (LPS activated monocytes, about 10 minutes) is “unchanged”. For the same molecule, the Akt activation result in assay [5] is recorded as “inhibited”. Further, in assay [6], the “effect on LPS induced degradation of IκB in monocytes” value was “no effect”.

With `CCCCCCCCCCCCCC(=O)O[C@@H]1[C@@H](C)[C@@]2(O)[C@@H](C=C(CO)C[C@]3(O)C(=O)C(C)=C[C@@H]23)[C@@H]2C(C)(C)[C@]12OC(C)=O` [PMA], the “Pathways Activated” value in the assay with granulocytes is on record as “P-ERK/MAP kinase”; in assay [1] (pathway: (IκB is not degraded)), “(IκB is not degraded)”; in assay [1] (setting [8]), “P-ERK/MAP kinase (Ras > Raf)”; in assay [2] (pathway: IκB > NFκB (PKC?)), “IκB > NFκB (PKC?)”; in assay [2] (setting [8]), “P-ERK/MAP kinase (Ras > Raf)”; in assay [2] (pathway: P-S6 (P-ERK)) it was “P-S6 (P-ERK)”. Also, the “ERK activation in monocytes” value in assay [1] (agonist alone) is “activation of ERK”. Besides, the “degradation of IκB in monocytes” value in assay [1] (agonist alone) was “no degradation of IκB”. Also, the “Akt activation in lymphocytes” value in assay [2] is listed as “not activated”. Further, the “ERK activation in lymphocytes” value in assay [2] is reported as “activation of ERK”. The “degradation of IκB in lymphocytes” value in assay [2] was “stimulated the degradation of IκB”. Besides, in assay [2] (over the 15 min time course), the “lymphocytes with both degradation of IκB and activation of ERK” value was “approximately 50%”.

As to `N#CC(=C(/N)Sc1ccccc1N)/C(C#N)=C(\N)Sc1ccccc1N` [U0126], the ERK activation result in assay [4] (LPS stimulated monocytes, single late ERK peak 8-10 minutes, FIG. 19) was “inhibited”.

B1: CD40L: IκB degradation agonist (protein, UniProt P29965 113-261, looked up)
CD40 ligand, soluble form: MQKGDQNPQIAAHVISEASSKTTSVLQWAEKGYYTMSNNLVTLENGKQLTVKRQGLYYIYAQVTFCSNREASSQAPFIASLCLKSPGRFERILLRAANTHSSAKPCGQQSIHLGGVFELQPGASVFVNVTDPSQVSHGTGFTSFGLLKL
B1: the “Pathways Activated” value in assay [1] (pathway: IκB > NFκB) is recorded as “IκB > NFκB”; in assay [1] (pathway: P38 MAP kinase) it was “P38 MAP kinase”; in assay [1] (setting [7]), “Tpl-2 > ERK/MAP kinase”; in assay [2] (pathway: IκB > NFκB (Tpl-2)), “IκB > NFκB (Tpl-2)”; in assay [2] (pathway: PI3 kinase > Akt), “PI3 kinase > Akt”; in assay [2] (setting [7]), “Tpl-2 > ERK/MAP kinase”. The “Akt activation in monocytes” value in assay [1] (agonist alone) is reported as “not activated”. The “ERK activation in monocytes” value in assay [1] (agonist alone) was “low level of ERK activation”. The “decrease of the level of IκB” value in assay [1] (monocytes, between 6 and 15 minutes post treatment) is given as “approximately 60%”; in assay [2] (lymphocytes, between 40 and 45 minutes post treatment) it was “approximately 40%”. Moreover, the “Akt activation in lymphocytes” value in assay [2] was “not activated”. Further, the “ERK activation in lymphocytes” value in assay [2] is recorded as “Neither ERK nor S6 were activated”. Besides, the “S6 activation in lymphocytes” value in assay [2] was “Neither ERK nor S6 were activated”.
